Measurements reported in paper PMC11942890, “Identification of a Novel NPC1L1 Inhibitor from Danshen and Its Role in Nonalcoholic Fatty Liver Disease” (International Journal of Molecular Sciences, 2025).
pIC50: −log10 of the molar value.

How the values were obtained:
[1] = target: T1, Niemann-Pick C1-like 1 (NPC1L1) (Homo sapiens, UniProt Q9UHC9); assay: NBD-cholesterol uptake inhibition in hL1-Caco2 cells stably expressing human NPC1L1; assay type: cell-based
T1 construct: hNPC1L1 CDS (NM_001101648.2) with 3 × Flag tag at the 3′ end, stably expressed in Caco2 cells (hL1-Caco2)

[2] = target: T1, Niemann-Pick C1-like 1 (NPC1L1); assay: reference inhibitor; NPC1L1 inhibition in hL1-Caco2 cells (NBD-cholesterol uptake); assay type: cell-based

T1 sequence (Q9UHC9 other isoform, or with tags, fused parts or gaps): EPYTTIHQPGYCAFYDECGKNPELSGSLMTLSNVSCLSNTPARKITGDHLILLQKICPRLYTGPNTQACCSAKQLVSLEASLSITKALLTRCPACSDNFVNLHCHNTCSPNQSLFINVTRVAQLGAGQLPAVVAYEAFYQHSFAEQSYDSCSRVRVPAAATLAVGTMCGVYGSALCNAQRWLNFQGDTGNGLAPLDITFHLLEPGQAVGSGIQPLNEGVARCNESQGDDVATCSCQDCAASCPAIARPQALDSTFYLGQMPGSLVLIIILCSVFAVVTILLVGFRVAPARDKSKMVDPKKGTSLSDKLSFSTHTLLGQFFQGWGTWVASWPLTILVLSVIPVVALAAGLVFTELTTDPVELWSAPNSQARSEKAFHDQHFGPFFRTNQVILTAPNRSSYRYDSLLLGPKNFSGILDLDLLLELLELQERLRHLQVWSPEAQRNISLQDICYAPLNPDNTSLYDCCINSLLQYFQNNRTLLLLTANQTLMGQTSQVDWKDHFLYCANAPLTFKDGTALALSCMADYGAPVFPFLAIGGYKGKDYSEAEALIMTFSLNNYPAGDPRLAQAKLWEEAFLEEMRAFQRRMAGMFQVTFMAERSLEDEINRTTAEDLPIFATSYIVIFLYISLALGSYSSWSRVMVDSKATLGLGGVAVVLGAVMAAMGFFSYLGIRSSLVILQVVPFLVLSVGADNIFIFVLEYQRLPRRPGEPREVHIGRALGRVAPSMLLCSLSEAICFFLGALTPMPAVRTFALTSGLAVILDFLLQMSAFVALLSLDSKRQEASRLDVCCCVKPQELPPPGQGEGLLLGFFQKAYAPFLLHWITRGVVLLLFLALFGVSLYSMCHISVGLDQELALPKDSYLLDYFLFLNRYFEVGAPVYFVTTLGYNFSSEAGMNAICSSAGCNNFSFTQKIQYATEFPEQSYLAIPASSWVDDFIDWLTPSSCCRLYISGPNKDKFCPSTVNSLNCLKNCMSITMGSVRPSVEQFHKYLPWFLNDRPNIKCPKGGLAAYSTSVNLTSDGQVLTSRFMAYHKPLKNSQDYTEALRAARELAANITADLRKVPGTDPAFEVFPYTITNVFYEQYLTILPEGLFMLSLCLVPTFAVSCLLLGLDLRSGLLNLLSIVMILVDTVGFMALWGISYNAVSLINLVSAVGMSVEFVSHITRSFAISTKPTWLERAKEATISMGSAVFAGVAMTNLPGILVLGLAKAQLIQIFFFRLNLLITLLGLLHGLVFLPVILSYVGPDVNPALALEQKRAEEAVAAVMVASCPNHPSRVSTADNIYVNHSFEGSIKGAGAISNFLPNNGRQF

| pIC50 [2] | Structure (SMILES) | pIC50 [1] |
| --- | --- | --- |
|  | C[C@H]1COC2=C1C(=O)C(=O)c1c2ccc2c1CCCC2(C)C [F1-1, cryptotanshinone] | 4.91 |
| 6.46 | O=C1[C@H](CC[C@H](O)c2ccc(F)cc2)[C@@H](c2ccc(O)cc2)N1c1ccc(F)cc1 [ezetimibe] |  |
